# Laboratory results reported in paper PMC8742467, “Therapeutical interference with the epigenetic landscape of germ cell tumors: a comparative drug study and new mechanistical insights” (Clinical Epigenetics, 2022).
# What was measured:
# [1] = system: SE (seminoma) cell lines; assay: XTT cell viability assay, mean per entity SE; assay type: cell-based; settings: Homo sapiens, after 48 h
# Description: (§1) The […] (XTT) assays were performed as described previously. In summary, for GCT and fibroblast cell lines 5 × 10^3 cells (3 × 10^3 for UC, PCa and RCC cell lines) per 96-well were seeded and different drug concentrations (see Additional file 2: Fig. S2, Additional file 3: Fig. S3) or corresponding solvents were added to the cells the following day. For drug details see Additional file 12: Table S2 C. Each condition was analyzed in four technical replicates and EC50 values were calculated by GraphPad Prism v8.
# [2] = system: 2102EP (EC); assay: XTT cell viability assay, 2102EP; assay type: cell-based; settings: Homo sapiens, 48 h, read-out: EC50 colour/symbol code, EC 2102EP
# Description: as §1
# [3] = system: EC-R (cisplatin-resistant embryonal carcinoma subclones); assay: XTT cell viability assay, mean per entity EC-R; assay type: cell-based; settings: Homo sapiens, after 48 h
# Description: as §1
# [4] = system: phosphorylated kinase targets in 2102EP cells; assay: Proteome Profiler Human Phospho-Kinase Array; assay type: cell-based; settings: 16 h
# Description: For the detection of phosphorylated kinase targets, the Proteome Profiler Human Phospho-Kinase Array Kit (R&D Systems, Abingdon, UK) was used according to the manufacturer’s instructions. The ChemiDoc Imaging System (Bio-Rad Laboratories, Feldkirchen, Germany) was used for detection. 2102EP cells were harvested after 16 h of treatment with the epi-drugs. Pixel density was analyzed using Fiji ImageJ 1.53c.
# [5] = system: TCam-2 (SE); assay: XTT cell viability assay, TCam-2; assay type: cell-based; settings: Homo sapiens, 48 h, read-out: EC50 colour/symbol code, SE TCam-2
# Description: as §1
# [6] = system: Sertoli cells FS1 (SC); assay: XTT cell viability assay, Sertoli cells; assay type: cell-based; settings: Homo sapiens; after 48 h
# Description: as §1
# [7] = system: EC (embryonal carcinoma) cell lines; assay: XTT cell viability assay, mean per entity EC; assay type: cell-based; settings: Homo sapiens, after 48 h
# Description: as §1
# [8] = system: histone modifications in 2102EP cells; assay: Mass spectrometry analysis of histone modifications (Mod Spec); assay type: cell-based, Human
# How it was run: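 2102EP cells were treated for 16 h with EC50 concentrations of Quisinostat, JIB-04, Chaetocin, MZ-1, LP99, PRT4165 or GSK343, with DMSO as solvent control. After trypsin harvest, histones were extracted and analysed by mass spectrometry. Raw data were converted to z-scores.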
# [9] = system: DNA methylation (5mC, 5hmC) in 2102EP cells; assay: DNA slot blot (5mC, 5hmC); assay type: cell-based, Human; settings: 24 h, solvent control set to 100%
# [10] = system: CC-R (cisplatin-resistant choriocarcinoma subclones); assay: XTT cell viability assay, mean per entity CC-R; assay type: cell-based; settings: Homo sapiens, after 48 h
# Description: as §1
# [11] = system: SE-R (cisplatin-resistant seminoma subclone); assay: XTT cell viability assay, mean per entity SE-R; assay type: cell-based; settings: Homo sapiens, after 48 h
# Description: as §1
# [12] = system: fibroblasts (MPAF, HVHF2); assay: XTT cell viability assay, fibroblasts; assay type: cell-based; settings: Homo sapiens, Fibroblast; after 48 h, mean
# Description: as §1
# [13] = 2102EP cells, Mod Spec raw data
# [14] = 2102EP, EC50, 16 h, vs solvent control
structure (smiles),measurement,setting,value
CN1C(=O)[C@@]23C[C@]4([C@]56C[C@@]78SS[C@@](CO)(C(=O)N7[C@H]5Nc5ccccc56)N(C)C8=O)c5ccccc5N[C@@H]4N2C(=O)[C@]1(CO)SS3 [Chaetocin],EC50,[1],122 nM
same,EC50,[2],< 1000 nM
same,EC50,[3],161 nM
same,"CREB, STAT3 and STAT5 phosphorylation and total levels of β-Catenin and HSP60",[4],decreased
same,p53 S15 phosphorylation,[4],increased
same,EC50,[5],< 1000 nM
same,EC50,[6],69.3 nM
same,EC50,[7],128 nM
same,"H1.4: K25AC, % of peptide pool",[8]; [13],0.02988%
same,"H1.4: K25ME1, % of peptide pool",[8]; [13],2.019%
same,"H1.4: K25ME2, % of peptide pool",[8]; [13],0.1186%
same,"H1.4: K25ME3, % of peptide pool",[8]; [13],0.02061%
same,"H1.4: K25UN, % of peptide pool",[8]; [13],97.812%
same,"H2A1: K13AC, % of peptide pool",[8]; [13],0.0146%
same,"H2A1: K13UN, % of peptide pool",[8]; [13],99.9854%
same,"H2A1: K15AC, % of peptide pool",[8]; [13],0.01159%
same,"H2A1: K15UB, % of peptide pool",[8]; [13],0%
same,"H2A1: K15UN, % of peptide pool",[8]; [13],99.9884%
same,"H2A3: K13AC, % of peptide pool",[8]; [13],0.04893%
same,"H2A3: K13UN, % of peptide pool",[8]; [13],99.9511%
same,"H2A3: K15AC, % of peptide pool",[8]; [13],0.07659%
same,"H2A3: K15UB, % of peptide pool",[8]; [13],0%
same,"H2A3: K15UN, % of peptide pool",[8]; [13],99.9234%
same,"H2A: K5AC, % of peptide pool",[8]; [13],14.3188%
same,"H2A: K5UN, % of peptide pool",[8]; [13],85.6812%
same,"H2A: K9AC, % of peptide pool",[8]; [13],1.675%
same,"H2A: K9UN, % of peptide pool",[8]; [13],98.3248%
same,"H2A: K36AC, % of peptide pool",[8]; [13],0.05938%
same,"H2A: K36UN, % of peptide pool",[8]; [13],99.9406%
same,"H3: K9AC, % of peptide pool",[8]; [13],0.8662%
same,"H3: K9ME1, % of peptide pool",[8]; [13],34.1794%
same,"H3: K9ME2, % of peptide pool",[8]; [13],24.6408%
same,"H3: K9ME3, % of peptide pool",[8]; [13],2.426%
same,"H3: K9UN, % of peptide pool",[8]; [13],37.8878%
same,"H3: K14AC, % of peptide pool",[8]; [13],29.886%
same,"H3: K14UN, % of peptide pool",[8]; [13],70.114%
same,"H3: K18AC, % of peptide pool",[8]; [13],12.8748%
same,"H3: K18ME1, % of peptide pool",[8]; [13],0.1543%
same,"H3: K18UN, % of peptide pool",[8]; [13],86.9709%
same,"H3: K23AC, % of peptide pool",[8]; [13],19.2205%
same,"H3: K23ME1, % of peptide pool",[8]; [13],0.03585%
same,"H3: K23UN, % of peptide pool",[8]; [13],80.7437%
same,"H3: K56AC, % of peptide pool",[8]; [13],0.2394%
same,"H3: K56ME1, % of peptide pool",[8]; [13],0.9888%
same,"H3: K56UN, % of peptide pool",[8]; [13],98.7718%
same,"H3: K64AC, % of peptide pool",[8]; [13],0.03741%
same,"H3: K64UN, % of peptide pool",[8]; [13],99.9626%
same,"H3: K79AC, % of peptide pool",[8]; [13],1.813%
same,"H3: K79ME1, % of peptide pool",[8]; [13],15.4225%
same,"H3: K79ME2, % of peptide pool",[8]; [13],5.182%
same,"H3: K79ME3, % of peptide pool",[8]; [13],17.8629%
same,"H3: K79UN, % of peptide pool",[8]; [13],59.719%
same,"H3: K122AC, % of peptide pool",[8]; [13],0.1813%
same,"H3: K122UN, % of peptide pool",[8]; [13],99.8187%
same,"H3: Q19ME1, % of peptide pool",[8]; [13],0.03077%
same,"H3: Q19UN, % of peptide pool",[8]; [13],99.9692%
same,"H3: Q55ME1, % of peptide pool",[8]; [13],0.2687%
same,"H3: Q55UN, % of peptide pool",[8]; [13],99.7313%
same,"H3: R42ME2, % of peptide pool",[8]; [13],2.246%
same,"H3: R42UN, % of peptide pool",[8]; [13],97.7541%
same,"H3: R49ME2, % of peptide pool",[8]; [13],6.84%
same,"H3: R49UN, % of peptide pool",[8]; [13],93.1597%
same,"H3R2UN: K4AC, % of peptide pool",[8]; [13],0.1823%
same,"H3R2UN: K4ME1, % of peptide pool",[8]; [13],17.5028%
same,"H3R2UN: K4ME2, % of peptide pool",[8]; [13],0.3386%
same,"H3R2UN: K4ME3, % of peptide pool",[8]; [13],0.1482%
same,"H3R2UN: K4UN, % of peptide pool",[8]; [13],81.8281%
same,"H3R2UN: Q5ME1, % of peptide pool",[8]; [13],0.09687%
same,"H3R2UN: Q5UN, % of peptide pool",[8]; [13],99.9031%
same,"H3.1: K27AC, % of peptide pool",[8]; [13],2.462%
same,"H3.1: K27ME1, % of peptide pool",[8]; [13],46.5828%
same,"H3.1: K27ME2, % of peptide pool",[8]; [13],19.949%
same,"H3.1: K27ME3, % of peptide pool",[8]; [13],2.906%
same,"H3.1: K27UN, % of peptide pool",[8]; [13],28.0999%
same,"H3.1: K36AC, % of peptide pool",[8]; [13],0.3566%
same,"H3.1: K36ME1, % of peptide pool",[8]; [13],14.5986%
same,"H3.1: K36ME2, % of peptide pool",[8]; [13],44.4208%
same,"H3.1: K36ME3, % of peptide pool",[8]; [13],21.3142%
same,"H3.1: K36UN, % of peptide pool",[8]; [13],19.3097%
same,"H3.3: K27AC, % of peptide pool",[8]; [13],5.581%
same,"H3.3: K27M, % of peptide pool",[8]; [13],0%
same,"H3.3: K27ME1, % of peptide pool",[8]; [13],45.9713%
same,"H3.3: K27ME2, % of peptide pool",[8]; [13],14.9979%
same,"H3.3: K27ME3, % of peptide pool",[8]; [13],5.393%
same,"H3.3: K27UN, % of peptide pool",[8]; [13],28.0564%
same,"H3.3: K36AC, % of peptide pool",[8]; [13],3.238%
same,"H3.3: K36ME1, % of peptide pool",[8]; [13],13.4078%
same,"H3.3: K36ME2, % of peptide pool",[8]; [13],46.3675%
same,"H3.3: K36ME3, % of peptide pool",[8]; [13],22.3154%
same,"H3.3: K36UN, % of peptide pool",[8]; [13],14.6709%
same,"H4: K5AC, % of peptide pool",[8]; [13],7.567%
same,"H4: K5UN, % of peptide pool",[8]; [13],92.4335%
same,"H4: K8AC, % of peptide pool",[8]; [13],11.8437%
same,"H4: K8UN, % of peptide pool",[8]; [13],88.1563%
same,"H4: K12AC, % of peptide pool","[8]; 2102EP cells, Mod Spec raw data, histone H4 K12 acetylated",6.89 % of peptide pool
same,"H4: K12UN, % of peptide pool","[8]; 2102EP cells, Mod Spec raw data, histone H4 K12 unmodified",93.1103 % of peptide pool
same,"H4: K16AC, % of peptide pool","[8]; 2102EP cells, Mod Spec raw data, histone H4 K16 acetylated",48.815 % of peptide pool
same,"H4: K16UN, % of peptide pool","[8]; 2102EP cells, Mod Spec raw data, histone H4 K16 unmodified",51.185 % of peptide pool
same,"H4: K20AC, % of peptide pool","[8]; 2102EP cells, Mod Spec raw data, histone H4 K20 acetylated",23.7533 % of peptide pool
same,"H4: K20ME2, % of peptide pool","[8]; 2102EP cells, Mod Spec raw data, histone H4 K20 dimethylated",42.9015 % of peptide pool
same,"H4: K20ME1, % of peptide pool","[8]; 2102EP cells, Mod Spec raw data, histone H4 K20 monomethylated",5.498 % of peptide pool
same,"H4: K20ME3, % of peptide pool","[8]; 2102EP cells, Mod Spec raw data, histone H4 K20 trimethylated",1.56 % of peptide pool
same,"H4: K20UN, % of peptide pool","[8]; 2102EP cells, Mod Spec raw data, histone H4 K20 unmodified",26.2873 % of peptide pool
same,change of histone modifications of the expected mode of action (Mod Spec),[8]; [14],reduction of H3K9me2/me3
same,off-target changes of histone modifications (Mod Spec),[8]; [14],increase of H4K20ac
same,5mC levels compared to solvent control,[9],85%
same,EC50,[10],233 nM
same,EC50,[11],218 nM
same,EC50,[12],138 nM
